From patent publication US9415114B2, “Conformations of divergent peptides with mineral binding affinity” (KAOHSIUNG MEDICAL UNIVERSITY, priority 2011, dated 2016)

Test: Hydroxylapatite column test (retention time on HAp column by HPLC)
Type: binding
Conditions: HAp column 0.7 x 5 cm, eluent 0.5 mM PBS pH 7.4, flow rate 0.25 mL/min, 220 nm; longer retention = higher mineral affinity
Method: Hydroxylapatite Column Test
Using the column which is filling hydroxylapatite particles to evaluate the affinity. The diameter and length of hydroxylapatite column are 0.7 and 5 cm, and experimented by High Performance Liquid Chromatography system. The elute solution is 0.5 mM PBS (pH 7.4), the flow rate is 0.25 mL/min, and the wavelength is 220 nm.

## H2N-(Gly)3-(Asp)3-NHAc [L1c]
  retention time in hydroxylapatite column test: 13.0 min

## HO-Gly-(Asp)6-NHAc [L1b]
  retention time in hydroxylapatite column test: 13.3 min
